{"source": "paper PMC5772982", "about": "(Molecular cell, 2017)", "target": "T1, PYL1 (Arabidopsis thaliana, UniProt Q8VZS8, S119A)", "T1 sequence (Q8VZS8 2-221 S119A)": "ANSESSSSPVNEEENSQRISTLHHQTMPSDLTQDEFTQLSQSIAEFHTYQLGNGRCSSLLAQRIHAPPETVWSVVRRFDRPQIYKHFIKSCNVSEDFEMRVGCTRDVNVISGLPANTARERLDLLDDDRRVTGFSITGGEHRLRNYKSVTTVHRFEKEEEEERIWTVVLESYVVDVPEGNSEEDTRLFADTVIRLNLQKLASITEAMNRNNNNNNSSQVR", "assay": "microscale thermophoresis", "format": "binding", "data": [{"smiles": "CC1=CC(=O)CC(C)(C)[C@@]1(O)/C=C/C(C)=C\\C(=O)O", "note": "[Abscisic Acid]", "values": [{"measurement": "Kd", "result": 219, "unit": "µM"}]}]}
